We go through two compounds from patent publication US20220047719A1, “ENHANCING SUBCUTANEOUS INJECTION AND TARGET TISSUE ACCUMULATION OF NANOPARTICLES VIA CO-ADMINISTRATION WITH MACROPINOCYTOSIS INHIBITORY NANOPARTICLES (MINP)” (Northwestern University, priority 2020, published 2022).

Molecules are shown by their SMILES.

Data set [1] deals with RAW264.7 macrophages. Kind of data set: Macropinocytosis inhibition, dextran-pHrodo uptake by flow cytometry. It counts as cell-based. The note with it: 2 h inhibitor, then 30 min dye. The method, then:
(§1) FIG. 2. […] (a) Cryogenic transmission electron microscopy (CryoTEM) of MiNP visually confirms retention of micellar structures. (b) MiNP with ((+) MiNP) and without ((−) MiNP) loaded LatA were characterized via small angle X-ray scattering (SAXS) and fitted with a micelle model fit using SASView. […] Cells were treated with each inhibitor for 2 h followed by 30 min of incubation with pHrodo dextran prior to analysis by flow cytometry. Data are shown as a percentile scale of endocytosis inhibition. On this scale, 0% represents standard cell uptake with no inhibitor, while 100% represents complete inhibition with no uptake of dye. N=3, p<0.001. […] N=3, p<0.001. […] Macrophages were incubated with various doses of free LatA or (+) MiNP for 4 h and assessed by flow cytometry for viability via the Zombie Aqua live/dead assay. N=3, p<0.05.
(§2) To investigate macropinocytosis inhibition by MiNP and determine whether this inhibition still permits uptake via receptor-mediated endocytosis, (+) MiNP were compared to chlorpromazine, an inhibitor of receptor-mediated endocytosis. These distinct mechanisms of endocytosis were evaluated using dextran conjugated pHrodo dye and transferrin conjugated pHrodo dye to respectively quantify effects of (+) MiNP and chlorpromazine on macropinocytosis (dextran) and receptor-mediated endocytosis (transferrin). […]
A general note: In flow cytometry, cells or beads pass a laser one at a time.

Data set [2] has as its system RAW264.7 macrophages. Nature of the data set: In vitro macrophage cytotoxicity, Zombie Aqua live/dead assay. In kind it is cell-based. The following applies: free drug. The method, then:
as §1, §2

A further data set has as its system B16F10 melanoma cells. Nature of the data set: LatA inhibition of E-MC and E-MC(FA) uptake. It counts as cell-based, mouse. The note with it: 0.5 μM LatA 2 h, then 30 min micelles. The method, then:
FIG. 10. […] B16F10 melanoma cells were treated with 0.5 μM LatA for 2 h followed by 30 min of incubation with either non-targeted E-MC or folate receptor targeted E-MC(FA) prior to analysis by flow cytometry. Data are shown as percentage inhibition of endocytosis normalized to untreated […]. N=3, p<0.001.

In data set [3] the test system is RAW264.7 macrophages. Nature of the data set: Receptor-mediated endocytosis, transferrin-pHrodo uptake by flow cytometry. The following applies: 2 h inhibitor, then 30 min dye. In kind it is cell-based. The method, then: as §1, §2

On to `C/C1=C/C(=O)O[C@@H]2C[C@@H](CC[C@H](C)/C=C\C=C\CC1)O[C@@](O)([C@@H]1CSC(=O)N1)C2` [free LatA, latrunculin A], for which the “inhibition of dextran-pHrodo uptake (macropinocytosis)” value was “much stronger inhibition of uptake than free chlorpromazine” in the data set on RAW264.7 macrophages [1] and “significantly inhibited macropinocytosis” with RAW264.7 macrophages [1] (listed as Free LatA). Moreover, the “doses with significant toxicity to macrophages” value in the data set on RAW264.7 macrophages [2] is ≥ 0.5 µM. The “inhibition of endocytosis of E-MC vs E-MC(FA)” value in the data set on B16F10 melanoma cells was “inhibits uptake of non-targeted E-MC more than targeted E-MC(FA)”.

Consider `CN(C)CCCN1c2ccccc2Sc2ccc(Cl)cc21` [free chlorpromazine, chlorpromazine], for which the “inhibition of transferrin-pHrodo uptake (receptor-mediated endocytosis)” value in the data set with RAW264.7 macrophages [3] was “significantly inhibited endocytosis”; with RAW264.7 macrophages [3] (listed as chlorpromazine), “significantly inhibited”.
